The target in this test is C5aR (Homo sapiens (Human), UniProt P21730). Nature of the test: Chemotaxis assay (inhibition of C5aR mediated migration towards C5a). As to conditions: inhibition in the chemotaxis assay (Example 14 B.3); U937 or neutrophil cells, 0.03 nM C5a. In kind it is cell-based. The procedure:
U937 cells are a monocytic cell line which express C5aR, and are available from ATCC (VA). These cells were cultured as a suspension in RPMI-1640 medium supplemented with 2 mM L-glutamine, 1.5 g/L sodium bicarbonate, 4.5 g/L glucose, 10 mM HEPES, 1 mM sodium pyruvate, and 10% FBS. Cells were grown under 5% CO2/95% air, 100% humidity at 37° C. and subcultured twice weekly at 1:6 (cells were cultured at a density range of 1×10^5 to 2×10^6 cells/mL) and harvested at 1×10^6 cells/mL. Prior to assay, cells are treated overnight with 0.5 mM of cyclic AMP (Sigma, Ohio) and washed once prior to use. cAMP treated U937 cells can be used in C5aR ligand binding and functional assays.
Optionally, human or murine neutrophils can be used to assay for compound activity. Neutrophils may be isolated from fresh human blood using density separation and centrifigation. Briefly, whole blood is incubated with equal parts 3% dextran and allowed to separate for 45 minutes. After separation, the top layer is layered on top of 15 mls of Ficoll (15 mls of Ficoll for every 30 mls of blood suspension) and centrifuged for 30 minutes at 400×g with no brake. The pellet at the bottom of the tube is then isolated and resuspended into PharmLyse RBC Lysis Buffer (BD Biosciences, San Jose, Calif.) after which the sample is again centrifuged for 10 minutes at 400×g with brake. The remaining cell pellet is resuspended as appropriate and consists of isolated neutrophils.
Optionally, compounds may be further assayed for their ability to inhibit chemotaxis in cells. Chemotaxis assays are performed using 5 μm pore polycarbonate, polyvinylpyrrolidone-coated filters in 96-well chemotaxis chambers (Neuroprobe; Gaithersburg, Md.) using chemotaxis buffer (Hank's balanced salt solution (HBSS) and 1% FBS). C5aR ligands (i.e., C5a, R&D Systems; Minneapolis, Minn.) are use to evaluate compound mediated inhibition of C5aR mediated migration. Other chemokines (i.e., SDF-1α; R&D Systems; Minneapolis, Minn.) are used as specificity controls. The lower chamber is loaded with 29 μl of chemokine (i.e., 0.03 nM C5a) and varying amounts of compound; the top chamber contains 100,000 U937 or neutrophil cells in 20 μl. The chambers are incubated 1.5 hours at 37° C., and the number of cells in the lower chamber quantified either by direct cell counts in five high powered fields per well or by the CyQuant assay (Molecular Probes), a fluorescent dye method that measures nucleic acid content and microscopic observation.
Chain of C5aR (P21730 whole entry): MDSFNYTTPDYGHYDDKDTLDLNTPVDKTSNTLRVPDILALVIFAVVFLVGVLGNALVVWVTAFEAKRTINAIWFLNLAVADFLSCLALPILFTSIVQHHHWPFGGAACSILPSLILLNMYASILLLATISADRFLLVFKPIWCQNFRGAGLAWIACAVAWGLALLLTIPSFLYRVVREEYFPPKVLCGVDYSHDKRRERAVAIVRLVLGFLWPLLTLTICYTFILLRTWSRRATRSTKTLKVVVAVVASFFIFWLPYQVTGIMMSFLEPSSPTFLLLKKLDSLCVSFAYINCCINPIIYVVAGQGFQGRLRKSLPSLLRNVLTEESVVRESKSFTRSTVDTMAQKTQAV
One may read the IC50 as the midpoint of a concentration-inhibition curve. A low value points to higher potency. Molecule `CCc1cccc(CC)c1-n1nc2c(c1-c1c(F)ccc3[nH]ccc13)CN(Cc1ccc(C(F)(F)F)cc1C(F)(F)F)C2(C)C` [Compound 1.043] gave an IC50 of 0.005 to 0.05 µM.
The value for `CCc1cccc(CC)c1-n1nc2c(c1-c1cccc3[nH]ccc13)CN(Cc1ccccc1C(F)(F)F)C2(C)C` [Compound 1.044] was 0.005 to 0.05 µM; that for `CCc1cccc(CC)c1-n1nc2c(c1-c1cccc3[nH]ccc13)CN(Cc1ccc(C(F)(F)F)cc1C(F)(F)F)C2(C)C` [Compound 1.045] was 0.005 to 0.05 µM; that for `CCc1cccc(CC)c1-n1nc2c(c1-c1ccc3[nH]ccc3c1)CN(Cc1cc(Cl)ccc1Cl)C2(C)C` [Compound 1.046] was 0.005 to 0.05 µM.
The molecule `CCc1cccc(CC)c1-n1nc2c(c1-c1ccc3[nH]ccc3c1)CN(Cc1ccccc1C(F)(F)F)C2(C)C` [Compound 1.047] returned an IC50 of 0.005 to 0.05 µM.
The value for `CCc1cccc(CC)c1-n1nc2c(c1-c1ccc3[nH]ccc3c1)CN(C(=O)OC(C)(C)C)C2(C)C` [Compound 1.048] was 0.005 to 0.05 µM; that for `CCc1cccc(CC)c1-n1nc2c(c1-c1ccc3[nH]ccc3c1)CN(C(c1ccccc1)C(C)(C)O)C2(C)C` (stereo not shown) [Compound 1.049] was 0.05 to 0.5 µM.
In turn, `CCOC(=O)C(c1ccccc1)N1Cc2c(nn(-c3c(CC)cccc3CC)c2-c2ccc3[nH]ccc3c2)C1(C)C` (stereo not shown) [Compound 1.050] gave an IC50 of 0.005 to 0.05 µM.
The value for `Cc1cccc(C)c1-n1nc2c(c1-c1ccc3[nH]cnc3c1)CN(CC(C)(C)C)C2` [Compound 1.051] was at least 0.5 µM.
The value for `Cc1cccc(C)c1-n1nc2c(c1-c1ccc3[nH]ccc3c1)CN(CC(C)(C)C)C2(C)C` [Compound 1.052] was 0.005 to 0.05 µM; that for `Cc1cccc(C)c1-n1nc2c(c1-c1ccc3[nH]ccc3c1)CN(CC(C)(C)C)C2` [Compound 1.053] was 0.05 to 0.5 µM; that for `CCOC(C)(C)C(=O)N1Cc2nn(-c3c(C)cccc3C)c(-c3ccc4[nH]ccc4c3)c2C1` [Compound 1.054] was at least 0.5 µM.
The value for `Cc1cccc(C)c1-n1nc2c(c1-c1ccc3[nH]ccc3c1)CN(C(=O)OC(C)(C)C)C2=O` [Compound 1.055] was at least 0.5 µM; that for `Cc1cccc(C)c1-n1nc2c(c1-c1ccc3[nH]ccc3c1)CN(C(=O)CCC1CCCC1)C2` [Compound 1.056] was at least 0.5 µM.
`Cc1cccc(C)c1-n1nc2c(c1-c1ccc3[nH]ccc3c1)CN(C(=O)CC1CCCC1)C2` [Compound 1.057]: the half-maximal inhibitory concentration (IC50) is at least 0.5 µM.
In the case of `Cc1cccc(C)c1-n1nc2c(c1-c1ccc3[nH]ncc3c1)CN(C(=O)OC(C)(C)C)C2` [Compound 1.058] it was at least 0.5 µM.
As to `Cc1cccc(C)c1-n1nc2c(c1-c1ccc3[nH]ccc3c1)CN(C(=O)C1CCCC1)C2` [Compound 1.059], the IC50 was at least 0.5 µM.
The value for `Cc1cccc(C)c1-n1nc2c(c1-c1ccc3[nH]ccc3c1)CN(C(=O)C(C)C1CCCCC1)C2` (stereo not shown) [Compound 1.060] was 0.05 to 0.5 µM; that for `Cc1cccc(C)c1-n1nc2c(c1-c1ccc3[nH]ccc3c1)CN(C(=O)CC(C)(C)C)C2` [Compound 1.061] was at least 0.5 µM; that for `Cc1cccc(C)c1-n1nc2c(c1-c1ccc3[nH]ccc3c1)CN(C(=O)[C@@H](O)C(C)C)C2` [Compound 1.062] was at least 0.5 µM.
In the case of `Cc1cccc(C)c1-n1nc2c(c1-c1ccc3[nH]ccc3c1)CN(S(=O)(=O)c1ccc(C(C)(C)C)cc1)C2` [Compound 1.063] it was at least 0.5 µM; in that of `Cc1cccc(C)c1-n1nc2c(c1-c1ccc3[nH]ccc3c1)CN(C(=O)c1ccc(C(C)(C)C)cc1)C2` [Compound 1.064], at least 0.5 µM.
In the case of `Cc1cccc(C)c1-n1nc2c(c1-c1ccc3[nH]ccc3c1)CN(C(=O)NC(C)(C)C)C2` [Compound 1.065] it was at least 0.5 µM; in that of `Cc1cccc(C)c1-n1nc2c(c1-c1ccc3[nH]ccc3c1)CN(C(=O)c1ccccc1)C2` [Compound 1.066], at least 0.5 µM; in that of `Cc1cccc(C)c1-n1nc2c(c1-c1ccc3[nH]ccc3c1)CN(C(=O)OC(C)(C)C)C2` [Compound 1.067], 0.05 to 0.5 µM.

Source of the values: patent US10683294B2, “5-5 fused rings as C5a inhibitors” (CHEMOCENTRYX, INC., priority 2017, dated 2020).
